Experimental data taken from PMC7681013, “Structure and kinetics of indole-3-glycerol phosphate synthase from Pseudomonas aeruginosa: Decarboxylation is not essential for indole formation” (The Journal of Biological Chemistry, 2020).

Target: T1, PaIGPS (Pseudomonas aeruginosa, UniProt P20577)
T1 construct: gene trpC
T1 sequence (P20577 1-278): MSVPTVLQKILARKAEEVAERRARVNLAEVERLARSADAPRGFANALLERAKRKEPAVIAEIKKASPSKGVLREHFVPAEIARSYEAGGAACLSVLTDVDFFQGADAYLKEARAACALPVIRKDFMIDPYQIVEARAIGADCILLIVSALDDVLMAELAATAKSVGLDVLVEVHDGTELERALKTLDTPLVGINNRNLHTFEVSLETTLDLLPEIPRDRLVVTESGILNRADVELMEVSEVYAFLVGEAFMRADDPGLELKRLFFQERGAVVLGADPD
Test: X-ray crystal structure, […] Å
Format: binding
Settings: active site, nonreactive substrate analog; seven of eight chains; pH 3.4 crystals

O=C(O)c1ccccc1NC[C@@H](O)[C@H](O)[C@H](O)COP(=O)(O)O [rCdRP]
X-ray crystal structure, 2.1 Å: The substrate analog, rCdRP, is bound in the active site of the seven more ordered chains.
